Laboratory results published in US5830872A, “Esters of D-mannose or of xylitol and their use as medicaments” (L'Associazione di volontariato "Pro La Fondazione Futuro …, priority 1994, dated 1998).

Experiments:
[1] = system: foetal haemoglobin, in particular the γ chain; conditions: acids and their salts, cited from earlier work; for synthesis of foetal haemoglobin: in particular γ chain
HL 60 cells = assay: Antiproliferative test: inhibition of growth of HL 60 cells; format: cell-based; conditions: concentrations 0.5 to 1 mM
Description: The tests were carried out on stabilized cell lines (HL 60 and others) in the absence of growth factors. The concentrations of butyric derivatives vary from 0.5 to 1 mM.
The following parameters were evaluated by "FASC Scan" scanning and flow cytometry:
incorporation of tritiated thymidine (exploration of cell metabolism);
incorporation of propylium iodide (determination of the phase of the cell cycle);

[2] = system: γ chain of the haemoglobin; assay: Level of γ chain of the haemoglobin in erythroleukaemic cell lines; format: cell-based; conditions: 0.70 mM (α-MAM-A), 0.35 mM (Xyli-C); for level of γ chain of the haemoglobin in the presence of A.P.A.A.P.: 10% without ester; for increase in level of γ chain of the haemoglobin: erythroleukaemic cell lines, normal human serum
Description: The following parameters were evaluated: level of γ chain of the haemoglobin (immunological quantitative determination by double antigen antibody reaction and by immunocytochemical quantitative determination in the presence of alkaline phosphatase-anti-alkaline phosphatase A.P.A.A.P.);

[3] = 95 hours, cited from earlier work
[4] = cited from earlier work
[5] = cited from earlier work; remark: listed apart in the source

O=C(O)Cc1ccccc1 [phenylacetic acid]
γ gene of human foetal haemoglobin [1]: induce the γ gene of human foetal haemoglobin
synthesis of foetal haemoglobin [1]: stimulate the synthesis of foetal haemoglobin

CCCC(=O)OCC1OC(C)(C)OC1C(O)CO (stereo not drawn) [MAXyli-C, 1-O-n-butanoyl-2,3-O-isopropylidenexylitol]
% of inhibition of growth HL 60 (HL 60 cells; 3 d.): 80%
% of inhibition of growth HL 60 (HL 60 cells; 4 d.): 90%

CCCC(=O)OC[C@H](O)[C@@H](O)[C@H](O)CO [Xyli-C, 1-O-n-butanoylxylitol]
% of inhibition of growth HL 60 (HL 60 cells; 5 d.): 70%
level of γ chain of the haemoglobin in the presence of A.P.A.A.P. [2]: 17%
increase in level of γ chain of the haemoglobin [2]: increase the level of γ chain of the haemoglobin

O=C(O)CCCc1ccccc1 [4-phenylbutyric acid]
γ gene of human foetal haemoglobin [1]: induce the γ gene of human foetal haemoglobin
synthesis of foetal haemoglobin [1]: stimulate the synthesis of foetal haemoglobin

CCCC(=O)O[C@@H]1[C@H]2OC(C)(C)O[C@H]2O[C@@H]1[C@H](O)CO [3-O-n-butanoyl-1,2-O-isopropylidene-α-D-glucofuranose]
5-O-n-butanoyl isomer in the non-deesterified fraction ([3]; pH=8.1, 25° C.): 4%
6-O-n-butanoyl isomer in the non-deesterified fraction ([3]; pH=8.1, 25° C.): 90%
initial ester in the non-deesterified fraction ([3]; pH=8.1, 25° C.): 6%
deesterification ([3]; same conditions (pH=8.1, 25° C.), Goueth et al.): 20%
internal transesterification in solution [4]: undergoes an internal transesterification

CCCC(=O)O [n-butyric acid]
γ gene of human foetal haemoglobin [1]: induce the γ gene of human foetal haemoglobin
synthesis of foetal haemoglobin [1]: stimulate the synthesis of foetal haemoglobin
in vivo plasma lifetime [5]: very short in vivo plasma lifetime

CCCC(=O)O[C@H]1O[C@H]([C@H](O)CO)[C@@H]2OC(C)(C)O[C@H]12 [α-MAM-A, O-n-butanoyl-2,3-O-isopropylidene-α-D-mannoside]
% of inhibition of growth HL 60 (HL 60 cells; 2 d.): 40%
% of inhibition of growth HL 60 (HL 60 cells; 5 d.): 80%
level of γ chain of the haemoglobin in the presence of A.P.A.A.P. [2]: 22%
increase in level of γ chain of the haemoglobin [2]: increase the level of γ chain of the haemoglobin
